Results on nine compounds are retold here after ChEMBL document CHEMBL3351970 (Bioorg Med Chem Lett, 2014).

For assay [1], the target named is T1, Transient receptor potential cation channel subfamily V member 1 (Homo sapiens, UniProt Q8NER1). The assay is described as follows: Antagonist activity against human TRPV1 expressed in CHO cells assessed as inhibition of capsaicin-induced channel activation by FLIPR assay. In kind it is cell-based.
The target of assay [2] is T1, Transient receptor potential cation channel subfamily V member 1. Kind of assay: Antagonist activity against human TRPV1 expressed in CHO cells assessed as inhibition of pH-induced channel activation by FLIPR assay. In kind it is cell-based.
Assay [3] shares this target. The assay is described as follows: Antagonist activity against human TRPV1 expressed in CHO cells assessed as inhibition of 45 degC heat-induced channel activation by FLIPR assay. The assay is classed as cell-based.
Assay [4] shares this target. Kind of assay: Antagonist activity against human TRPV1 expressed in CHO cells assessed as inhibition of NADA-induced channel activation by FLIPR assay. The assay is classed as cell-based.
The subject of assay [5] is Mus musculus. The assay is described as follows: Inhibition of capsaicin-induced hypothermia in mouse at 0.1 mg/kg, po administered 15 mins before capsaicin challenge and measured 30 mins post capsaicin injection. The assay is classed as functional.
The subject of assay [6] is Mus musculus. The assay is described as follows: Inhibition of capsaicin-induced hypothermia in mouse at 0.3 mg/kg, po administered 15 mins before capsaicin challenge and measured 30 mins post capsaicin injection. The assay is classed as functional.
Assay [7] deals with Mus musculus. Kind of assay: Inhibition of capsaicin-induced hypothermia in mouse at 1 mg/kg, po administered 15 mins before capsaicin challenge and measured 30 mins post capsaicin injection. In kind it is functional.
Assay [8] deals with Mus musculus. Kind of assay: Inhibition of capsaicin-induced hypothermia in mouse at 10 mg/kg, po administered 15 mins before capsaicin challenge and measured 30 mins post capsaicin injection. In kind it is functional.
The test system of assay [9] is Mus musculus. Kind of assay: Inhibition of capsaicin-induced hypothermia in mouse administered orally 15 mins before capsaicin challenge and measured 30 mins post capsaicin injection. The assay is classed as functional, organism-based.
Assay [10] concerns Mus musculus. Kind of assay: Anti-allodynic activity in mouse model of chronic constriction injury-induced neuropathic pain assessed as inhibition of pain response at 0.0001 mg/kg, po. In kind it is functional.
Assay [11] relates to Mus musculus. The assay is described as follows: Anti-allodynic activity in mouse model of chronic constriction injury-induced neuropathic pain assessed as inhibition of pain response at 0.001 mg/kg, po. In kind it is functional.
The test system of assay [12] is Mus musculus. Kind of assay: Anti-allodynic activity in mouse model of chronic constriction injury-induced neuropathic pain assessed as inhibition of pain response at 0.01 mg/kg, po. In kind it is functional.
The test system of assay [13] is Mus musculus. Kind of assay: Anti-allodynic activity in mouse model of chronic constriction injury-induced neuropathic pain assessed as inhibition of pain response at 0.1 mg/kg, po. The assay is classed as functional.
Assay [14] relates to Mus musculus. Kind of assay: Anti-allodynic activity in orally dosed mouse model of chronic constriction injury-induced neuropathic pain assessed as inhibition of pain response. In kind it is functional. As to conditions: po.

The Ki is the equilibrium dissociation constant of an inhibitor or competing ligand from its target. By inhibition in vivo is commonly meant the drop in the measured response relative to a control, in per cent. A word on the ED50: it is the midpoint of the dose-response relation.

T1 sequence (Q8NER1 whole entry): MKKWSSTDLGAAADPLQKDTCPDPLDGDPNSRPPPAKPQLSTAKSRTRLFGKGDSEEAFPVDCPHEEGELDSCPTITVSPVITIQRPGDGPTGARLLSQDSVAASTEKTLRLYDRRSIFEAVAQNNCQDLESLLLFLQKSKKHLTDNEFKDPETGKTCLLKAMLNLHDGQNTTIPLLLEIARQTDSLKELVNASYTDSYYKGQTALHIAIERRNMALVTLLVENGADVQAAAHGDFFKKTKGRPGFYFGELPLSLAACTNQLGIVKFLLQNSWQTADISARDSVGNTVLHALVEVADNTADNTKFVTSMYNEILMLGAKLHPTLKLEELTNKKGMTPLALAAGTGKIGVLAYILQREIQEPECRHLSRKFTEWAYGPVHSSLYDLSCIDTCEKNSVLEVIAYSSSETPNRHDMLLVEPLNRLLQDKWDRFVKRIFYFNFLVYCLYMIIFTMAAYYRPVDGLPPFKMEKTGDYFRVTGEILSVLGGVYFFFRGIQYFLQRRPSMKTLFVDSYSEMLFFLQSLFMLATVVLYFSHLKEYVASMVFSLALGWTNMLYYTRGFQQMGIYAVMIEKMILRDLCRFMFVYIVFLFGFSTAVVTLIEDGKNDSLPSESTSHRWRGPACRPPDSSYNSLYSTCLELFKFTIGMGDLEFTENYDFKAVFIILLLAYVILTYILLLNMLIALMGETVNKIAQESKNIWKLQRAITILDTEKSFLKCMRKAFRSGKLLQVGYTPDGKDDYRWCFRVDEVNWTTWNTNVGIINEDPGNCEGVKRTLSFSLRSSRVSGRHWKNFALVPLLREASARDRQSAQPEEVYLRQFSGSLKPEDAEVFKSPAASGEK

Consider `CC(C(=O)NCc1ccc(C(F)(F)F)nc1-n1ccnc1)c1ccc(NS(C)(=O)=O)c(F)c1` (stereo unspecified), for which the inhibition constant (Ki) in [1] was 36.1 nM.
Still for that read-out and setting: the figure for `CC(C(=O)NCc1ccc(C(F)(F)F)nc1-c1ccoc1)c1ccc(NS(C)(=O)=O)c(F)c1` (stereo unspecified) is 1.4 nM; for `CC(C(=O)NCc1ccc(C(F)(F)F)nc1-c1cc2ccccc2s1)c1ccc(NS(C)(=O)=O)c(F)c1` (stereo unspecified) it is 1 nM.
On the same count and under the same terms, as for `CC(C(=O)NCc1ccc(C(F)(F)F)nc1-c1ccco1)c1ccc(NS(C)(=O)=O)c(F)c1` (stereo unspecified), the figure is 5.8 nM.
Turning to `COc1cc(OC)cc(-c2nc(C(F)(F)F)ccc2CNC(=O)C(C)c2ccc(NS(C)(=O)=O)c(F)c2)c1` (stereo unspecified), the Ki in assay [1] turned out to be 58 nM.
Still for that read-out and setting: the figure for `CC(C(=O)NCc1ccc(C(F)(F)F)nc1-c1ccsc1)c1ccc(NS(C)(=O)=O)c(F)c1` (stereo unspecified) is 2 nM.
Still for that read-out and setting: as for `CC(C(=O)NCc1ccc(C(F)(F)F)nc1Cc1ccccc1)c1ccc(NS(C)(=O)=O)c(F)c1` (stereo unspecified), the figure is 141 nM.
Take `CC(C(=O)NCc1ccc(C(F)(F)F)nc1-c1ccc(F)cc1)c1ccc(NS(C)(=O)=O)c(F)c1` (stereo unspecified): the values for the Ki in assay [2], in assay [3] and in [4] were 131 nM, 25.9 nM and 0.84 nM, respectively. The compound also registered an inhibition in vivo at 0.1 mg/kg in [5] of 25%. The same compound came in with an inhibition in vivo at 0.3 mg/kg in assay [6] of 38%. In addition, in [7], at 1 mg/kg the inhibition in vivo was 60%. Moreover, testing at 10 mg/kg in assay [8] gave an inhibition in vivo of 91%. For the same compound, the inhibition result in assay [9] is “Dose-dependent effect”. Also, the MPE in assay [10] is given as 21.9%; in assay [11] it was 30.5%; in assay [12], 52.9%; in assay [13], 47.1%. For the same compound, in assay [14], the ED50 turned out to be 0.01 mg/kg.
For `CC(C(=O)NCc1ccc(C(F)(F)F)nc1/C=C/c1ccccc1)c1ccc(NS(C)(=O)=O)c(F)c1` (stereo unspecified), the Ki in assay [1] amounted to 2.2 nM.
